How the values were obtained:
[1] = cited from earlier work
[2] = typically above 45° C.; cited from earlier work
[3] = Thermal stability of NBPT at high temperature; assay type: physicochemical; conditions: followed by sludge/precipitate formation after weeks of high heat
Description: Another problem is that certain nitrification inhibitors and/or urease inhibitors degrade at certain high temperatures. […] Often times temperatures in agricultural fields (e.g., corn fields, wheat fields, etc.) reach in excess of 35° C. and sometimes can reach up to 45° C. or higher. For example, at 45° C. […] Thus, it is also desirable to have solvent systems containing nitrification inhibitors and/or urease inhibitors that are stabilized at high temperatures, such as those utilized in hot climates or weather. This invention addresses the addition of co-solvents and/or stabilizers to prolong the chemical and physical stability of formulated liquid agricultural compositions containing (i) one or more nitrification inhibitors, (ii) one or more urease inhibitors or (iii) a combination of both (i) and (ii). In one embodiment, the at least one urease inhibitor is NBPT. In one embodiment, the at least one nitrification inhibitor a natural nitrification inhibitor. In yet another embodiment, the at least one nitrification inhibitor is neem.

| SMILES | solubility in water [1] | degradation at higher temperature [2] | appearance of NBPT formulated in different solvents at 45° C. [3] |
| --- | --- | --- | --- |
| N#CNC(=N)N [dicyandiamide, Dicyandiamide] | about 41 g/l | – | – |
| CCCCNP(N)(N)=S [NBPT, N-(n-butyl)-thiophosphoric triamide] | – | degrades rapidly | changes color in days from colorless to a darker green/brown |
